Experimental data reported in paper PMC3656107, “Polymorphisms in the F8 Gene and MHC-II Variants as Risk Factors for the Development of Inhibitory Anti-Factor VIII Antibodies during the Treatment of Hemophilia A: A Computational Assessment” (PLoS Computational Biology, 2013).

Columns and labels:
MHC-II DRB1*11:01 [1] = target: T1, MHC-II DRB1*11:01 (Homo sapiens, UniProt P01903+P01911, A100R/A169T/A87E/I96F/K41T/L162R/M171V/P40S/Q125H/Q178H/Q39Y/Q99D/R42S/S66Y/T262R/V115G/W38E); assay: Cell-free REVEAL class II binding assay; conditions: signal of test peptide as percentage of allele-specific positive control peptide, fluorescence, conformation-specific monoclonal antibody
From the text: (§1) We used a proprietary high throughput, REVEAL binding assay (ProImmune, www.proimmune.com) to estimate the binding of individual test peptides to the following MHC-II variants: DRB1*03:01, DRB1*04:01, DRB1*07:01, DRB1*11:01, DRB1*15:01 and DRB1*15:03 [28]. Detection of a peptide binding to each MHC-II protein is based on the presence or absence of the native conformation of the MHC-peptide complex. The peptide-MHC-II complex is detected by an increase in a fluorescence signal due to the binding of a specific monoclonal antibody. Each test-peptide is given a score relative to a positive control peptide, which is a known T-cell epitope for that MHC-II molecule. The score is reported quantitatively as a percentage of the signal generated by the test peptide compared with the positive control peptide. Assay performance is evaluated by including in each set of measurements an intermediate control peptide which is known to bind the MHC-II molecule but with a lower affinity than the positive control peptide. Note that the positive control peptide used to determine the binding score is different from the positive control peptides depicted in the figures, which are known T-cell epitopes identified in the FVIII molecule.

MHC-II DRB1*07:01 [2] = target: T2, MHC-II DRB1*07:01 (Homo sapiens, UniProt P01903+P01911, A100R/A102G/A103Q/D57E/D86V/E43K/F76Y/K127E/L162R/M171V/P40G/Q125H/Q99D/R33Q/R42Y/R54Q/S133A/S66F/T210M/V115G/Y107V/Y59L/Y89S); assay: Cell-free REVEAL class II binding assay; conditions: signal of test peptide as percentage of allele-specific positive control peptide, fluorescence, conformation-specific monoclonal antibody
From the text: as §1

MHC-II DRB1*15:03 [3] = target: T3, MHC-II DRB1*15:03 (Homo sapiens, UniProt P01903+P01911, Y59H); assay: Cell-free REVEAL class II binding assay; conditions: signal of test peptide as percentage of allele-specific positive control peptide, fluorescence, conformation-specific monoclonal antibody
T3 construct: purchased ProImmune
From the text: as §1

MHC-II DRB1*03:01 [4] = target: T4, MHC-II DRB1*03:01 (Homo sapiens, UniProt P01903+P01911, A100K/A102G/A103R/A169T/F55Y/I96L/K41T/L162R/M171V/P40S/Q125H/Q178H/Q39Y/R42S/S66N/T106N/T262R/W38E/Y61H); assay: Cell-free REVEAL class II binding assay; conditions: signal of test peptide as percentage of allele-specific positive control peptide, fluorescence, conformation-specific monoclonal antibody
From the text: as §1

MHC-II DRB1*15:01 [5] = target: T5, MHC-II DRB1*15:01 (Homo sapiens, UniProt P01903+P01911); assay: Cell-free REVEAL class II binding assay; conditions: signal of test peptide as percentage of allele-specific positive control peptide, fluorescence, conformation-specific monoclonal antibody
T5 construct: purchased ProImmune
From the text: as §1

MHC-II DRB1*04:01 [6] = target: T6, MHC-II DRB1*04:01 (Homo sapiens, UniProt P01903+P01911, A100K/A169T/F76Y/I96L/K127E/L162R/M171V/N62H/P40V/Q125Y/R42H/S133A/S149N/S66Y/V115G/V209L/W38E); assay: Cell-free REVEAL class II binding assay; conditions: signal of test peptide as percentage of allele-specific positive control peptide, fluorescence, conformation-specific monoclonal antibody
From the text: as §1

MHC-II DRB1*11:01 [7] = target: T1, MHC-II DRB1*11:01; assay: Cell-free REVEAL class II stability assay; conditions: half-life of peptide-MHC-II complex (h, capped at 120) x Binding Score / 100, conformational ELISA
Method: (§2) We measured the half-life of each peptide-MHC-II complex using REVEAL peptide-MHC affinity assays developed by ProImmune Ltd. (Oxford, UK). On-rates of peptides were measured over a 96-hr period at 10°C. A unique positive control peptide was used for each MHC-II allele. Samples of assembling peptide-MHC complexes were taken at defined time points and snap-frozen in liquid nitrogen prior to analysis. Assembly of peptide-MHC complexes was detected using a conformational ELISA involving an anti-HLA antibody. On-rates were calculated by fitting data to a one-phase association curve: [drawing 1] To determine the off-rates of the peptides, samples of dissociating complexes were taken at defined time points and frozen in liquid nitrogen prior to analysis. Percent denaturation of peptide-MHC complexes was also detected using a conformational ELISA. Off-rates were calculated by fitting data to a one-phase dissociation curve: [drawing 2] On- and off-rate half-life values (t1/2) were calculated from the rate constant (k) using the following equation: [drawing 3] To obtain a normalized stability score, the half-life values were multiplied by the Binding Score (see above) and divided by 100.

MHC-II DRB1*07:01 [8] = target: T2, MHC-II DRB1*07:01; assay: Cell-free REVEAL class II stability assay; conditions: half-life of peptide-MHC-II complex (h, capped at 120) x Binding Score / 100, conformational ELISA
Method: as §2

MHC-II DRB1*15:03 [9] = target: T3, MHC-II DRB1*15:03; assay: Cell-free REVEAL class II stability assay; conditions: half-life of peptide-MHC-II complex (h, capped at 120) x Binding Score / 100, conformational ELISA
Method: as §2

MHC-II DRB1*03:01 [10] = target: T4, MHC-II DRB1*03:01; assay: Cell-free REVEAL class II stability assay; conditions: half-life of peptide-MHC-II complex (h, capped at 120) x Binding Score / 100, conformational ELISA
Method: as §2

MHC-II DRB1*15:01 [11] = target: T5, MHC-II DRB1*15:01; assay: Cell-free REVEAL class II stability assay; conditions: half-life of peptide-MHC-II complex (h, capped at 120) x Binding Score / 100, conformational ELISA
Method: as §2

MHC-II DRB1*04:01 [12] = target: T6, MHC-II DRB1*04:01; assay: Cell-free REVEAL class II stability assay; conditions: half-life of peptide-MHC-II complex (h, capped at 120) x Binding Score / 100, conformational ELISA
Method: as §2

T3 sequence (P01903 26-254, other chains not shown): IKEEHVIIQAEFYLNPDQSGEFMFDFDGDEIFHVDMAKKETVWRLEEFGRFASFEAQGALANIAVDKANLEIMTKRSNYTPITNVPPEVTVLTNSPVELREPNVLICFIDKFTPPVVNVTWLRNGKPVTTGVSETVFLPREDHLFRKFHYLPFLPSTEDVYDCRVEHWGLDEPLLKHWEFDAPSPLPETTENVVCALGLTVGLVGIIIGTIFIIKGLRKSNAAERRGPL
T1 sequence (P01903 26-254 limits assumed, other chains not shown): as the sequence (P01903 26-254, other chains not shown) above
T4 sequence (P01903 26-254 limits assumed, other chains not shown): as the sequence (P01903 26-254, other chains not shown) above

Row | Sequence | Binding Score (MHC-II DRB1*11:01 [1]) | Binding Score (MHC-II DRB1*07:01 [2]) | Binding Score (MHC-II DRB1*15:03 [3]) | Binding Score (MHC-II DRB1*03:01 [4]) | Binding Score (MHC-II DRB1*15:01 [5]) | Binding Score (MHC-II DRB1*04:01 [6]) | Stability Index (MHC-II DRB1*11:01 [7]) | Stability Index (MHC-II DRB1*07:01 [8]) | Stability Index (MHC-II DRB1*15:03 [9]) | Stability Index (MHC-II DRB1*03:01 [10]) | Stability Index (MHC-II DRB1*15:01 [11]) | Stability Index (MHC-II DRB1*04:01 [12])
1 | YIRLHPTHYSIRSTL [synthetic wild type FVIII 15 mer peptide] | 174.3% | 17.2% | 234.7% | 7.9% | 1195.7% | 59.3% | 30.2 | 20.6 | 281.7 | 2.4 | 1434.9 | 61.0
2 | NPPIIARYIRLHPTH [synthetic wild type FVIII 15 mer peptide] | 76.5% | 0.2% | 15.2% | 0.4% |  | 5.0% | 6.3 | 0.2 | 18.2 | 0.0 | 1374.9 | 3.1
3 | LQVDFQKTMKVTGVT [synthetic wild type FVIII 15 mer peptide, region of ns-SNP M2238V] | 235.0% | 0.1% | 1.5% | 30.7% | 4.4% | 11.6% | 62.0 | 0.1 | 0.0 | 13.5 | 0.3 | 0.9
4 | AWRPQVNNPKEWLQV [synthetic wild type FVIII 15 mer peptide] | 0.1% | 0.0% | 0.2% | 0.0% | 0.5% | 17.7% | 0.0 | 0.0 | 0.1 | 0.0 | 0.6 | 10.2
5 | YSLDGKKWQTYRGNS [synthetic wild type FVIII 15 mer peptide] | 23.5% | 0.0% | 0.2% | 0.0% | 11.8% | 0.9% | 1.1 | 0.0 | 0.0 | 0.0 | 3.0 | 0.1
6 | PPLLTRYLRIHPQSW [synthetic wild type FVIII 15 mer peptide] | 42.2% | 7.0% | 21.7% | 0.0% | 403.3% | 9.6% | 5.9 | 8.4 | 26.0 | 0.0 | 483.9 | 0.9
